Data as given in ChEMBL document CHEMBL1136680, “Synthesis and biological activities of phthalocyanine-estradiol conjugates” (2003).
The source made the active and inactive calls. No cut-off for these calls is given here.

Columns and labels:
[1] = test system: EMT6; assay: In vitro phototoxicity in EMT-6 cells at 1 uM after 24 hr r MTT assay; format: functional, Mus musculus
[2] = target: Estrogen receptor (Homo sapiens) (UniProt Q92731+P03372); assay: Displacement of [3H]estradiol from estrogen receptor; format: protein assay; conditions: tested as the Zn salt or complex
[3] = test system: EMT6; assay: In vitro phototoxicity in EMT-6 cells at 1 uM after 6 hr MTT assay; format: functional, Mus musculus
[4] = test system: EMT6; assay: In vitro phototoxicity in EMT-6 cells at 1 uM after 24 hr r MTT assay; Not active; format: functional, cell-based; conditions: Mus musculus, tested as the Zn salt or complex
[5] = test system: EMT6; assay: In vitro phototoxicity in EMT-6 cells at 1 uM after 6 hr MTT assay; Not active; format: functional, cell-based; conditions: Mus musculus, tested as the Zn salt or complex

Row | SMILES | LD90 [1] [J cm**-2] | relative binding affinity (RBA) [2] | LD90 [3] [J cm**-2] | LD90 [4] | LD90 [5]
1 | C[C@]12CC[C@@H]3c4ccc(O)cc4CC[C@H]3[C@@H]1CC[C@]2(O)C#Cc1ccc2c(c1)-c1nc-2nc2[nH]c(nc3nc(nc4[nH]c(n1)c1ccc(S(=O)(=O)[O-])cc41)-c1ccc(S(=O)(=O)[O-])cc1-3)c1cc(S(=O)(=O)[O-])ccc21.[Na+].[Na+].[Na+].[Zn] | 5.1 | 1.64 | 7 | – | –
2 | CCCCc1ccc2c(c1)-c1nc-2nc2[nH]c(nc3nc(nc4[nH]c(n1)c1ccc(CCCC)cc41)-c1ccc(C#C[C@@]4(O)CC[C@H]5[C@@H]6CCc7cc(O)ccc7[C@H]6CC[C@@]54C)cc1-3)c1ccc(CCCC)cc21 | – | 1.35 | – | inactive | inactive
3 | CCCCc1ccc2c(c1)-c1nc-2nc2[nH]c(nc3nc(nc4[nH]c(n1)c1ccc(CCCC)cc41)-c1cccc(C#C[C@@]4(O)CC[C@H]5[C@@H]6CCc7cc(O)ccc7[C@H]6CC[C@@]54C)c1-3)c1ccc(CCCC)cc21 | – | 12.9 | – | inactive | inactive
4 | C[C@]12CC[C@@H]3c4ccc(O)cc4CC[C@H]3[C@@H]1CC[C@]2(O)CCCCC#CC#Cc1cccc2c1-c1nc-2nc2[nH]c(nc3nc(nc4[nH]c(n1)c1ccc(S(=O)(=O)[O-])cc41)-c1ccc(S(=O)(=O)[O-])cc1-3)c1ccc(S(=O)(=O)[O-])cc21.[Na+].[Na+].[Na+].[Zn] | 4.3 | 0.56 | 12 | – | –
5 | C[C@]12CC[C@@H]3c4ccc(O)cc4CC[C@H]3[C@@H]1CC[C@]2(O)c1ccc(C#CC#Cc2ccc3c(c2)-c2nc-3nc3[nH]c(nc4nc(nc5[nH]c(n2)c2ccc(S(=O)(=O)[O-])cc52)-c2ccc(S(=O)(=O)[O-])cc2-4)c2ccc(S(=O)(=O)[O-])cc32)cc1.[Na+].[Na+].[Na+].[Zn] | 5.3 | 1.22 | 10.4 | – | –
6 | CCCCc1ccc2cc3c(cc2c1)-c1nc-3nc2[nH]c(nc3nc(nc4[nH]c(n1)c1cc5ccc(CCCC)cc5cc41)-c1ccc(C#C[C@@]4(O)CC[C@H]5[C@@H]6CCc7cc(O)ccc7[C@H]6CC[C@@]54C)cc1-3)c1cc3ccc(CCCC)cc3cc21 | – | 10.4 | – | inactive | inactive
7 | C[C@]12CC[C@@H]3c4ccc(O)cc4CC[C@H]3[C@@H]1CC[C@]2(O)CCCCC#CC#Cc1ccc2c(c1)-c1nc-2nc2[nH]c(nc3nc(nc4[nH]c(n1)c1ccc(S(=O)(=O)[O-])cc41)-c1ccc(S(=O)(=O)[O-])cc1-3)c1ccc(S(=O)(=O)[O-])cc21.[Na+].[Na+].[Na+].[Zn] | 2.9 | 1.26 | 7.3 | – | –
8 | CCCCc1ccc2c(c1)-c1nc-2nc2[nH]c(nc3nc(nc4[nH]c(n1)c1ccc(CCCC)cc41)-c1ccc(C#CC#Cc4cccc([C@@]5(O)CC[C@H]6[C@@H]7CCc8cc(O)ccc8[C@H]7CC[C@@]65C)c4)cc1-3)c1ccc(CCCC)cc21 | – | 8.54 | – | inactive | inactive
9 | C[C@]12CC[C@@H]3c4ccc(O)cc4CC[C@H]3[C@@H]1CC[C@]2(O)c1cccc(C#CC#Cc2ccc3c(c2)-c2nc-3nc3[nH]c(nc4nc(nc5[nH]c(n2)c2ccc(S(=O)(=O)[O-])cc52)-c2ccc(S(=O)(=O)[O-])cc2-4)c2ccc(S(=O)(=O)[O-])cc32)c1.[Na+].[Na+].[Na+].[Zn] | 4 | 0.3 | 10.4 | – | –
10 | CCCCc1ccc2c(c1)-c1nc-2nc2[nH]c(nc3nc(nc4[nH]c(n1)c1ccc(CCCC)cc41)-c1ccc(C#CC#CCCCC[C@@]4(O)CC[C@H]5[C@@H]6CCc7cc(O)ccc7[C@H]6CC[C@@]54C)cc1-3)c1ccc(CCCC)cc21 | – | 3.08 | – | inactive | inactive
11 | C[C@]12CC[C@@H]3c4ccc(O)cc4CC[C@H]3[C@@H]1CC[C@]2(O)C#Cc1cccc2cc3c(cc12)-c1nc-3nc2[nH]c(nc3nc(nc4[nH]c(n1)c1ccc(S(=O)(=O)[O-])cc41)-c1ccc(S(=O)(=O)[O-])cc1-3)c1cc(S(=O)(=O)[O-])ccc21.[Na+].[Na+].[Na+].[Zn] | 3 | 1.24 | 12 | – | –
